Measured values taken from paper PMC10227015, “From a drug repositioning to a structure-based drug design approach to tackle acute lymphoblastic leukemia” (Nature Communications, 2023).
Where two headings read alike, the source gives them in different places.

Key:
[1] = tested on: CCRF-CEM cell line; experiment: CCRF-CEM proliferation, compound alone (nonspecific toxicity); assay type: cell-based, human; conditions: compound 10 µM alone, 72 h
Description: The dCK cellular assay was set up to assess the ability to inhibit dCK activity in a cellular model. The model was developed with a T-cell acute lymphoblastic leukemia cell line (CCRF-CEM), because of its high dependence on the SP, thus on dCK activity. Cellular assays were performed to assess the inhibition of cell proliferation under two conditions: (i) in the presence of the compound alone to determine the nonspecific effect on cells, independent of dCK (nonspecific toxicity) and (ii) in the presence of an inhibitor of the DNP to determine the ability of compounds to inhibit dCK and decrease tumor proliferation (activity on dCK). The inhibitor of the DNP chosen for the experiments was thymidine (dT), a physiological inhibitor of ribonucleotide reductase which arrests cell proliferation in phase S. The dTTP produced via thymidine kinase from dT acts as a RNR inhibitor by an allosteric regulation of the R1 subunit. The addition of the nucleoside deoxycytidine (dC) in the medium allows the rescue of cell proliferation by passing only through the salvage pathway, mediated by dCK. dC needs to be added exogenously to mimic physiological concentrations because it is not present in the cell culture medium, on the contrary to mouse model, in which it is naturally present in the serum. Therefore, cell proliferation under these conditions (+dT +dC) is dCK dependent and it is possible to determine the IC50 of dCK inhibitors on the inhibition of cell proliferation. Results are expressed as % cell proliferation relative to the control with DMSO.
The amount of reduced dye formed by metabolically active cells was quantified by its fluorescence measured at 560 nm (excitation) and 590 nm (emission) in a microplate reader (CLARIOstar, BMG Labtech). A blank well without cells was used as a background control. Each experiment was performed at least three times (with technical triplicates) and data are presented as the mean ± SD.

[2] = target: T1, dCK-C3S-S74E (Homo sapiens, UniProt P27707, form not given/S74E); experiment: Enzymatic assay (PK/LDH coupled), dC phosphorylation by dCK in the presence of UTP; assay type: biochemical; conditions: presence of UTP
Description: (§1) For enzymatic assays, cells were re-suspended in 20 mM TRIS, pH 8 500 mM NaCl, 0.1% BRIJ-35 and 5% glycerol buffer and one EDTA free anti-protease tablet was added (Roche). After sonication and centrifugation (30,000 × g), the supernatant was loaded on a 5 ml HisTrap FF column (GE healthcare) pre-equilibrated with 20 mM TRIS, pH 8, 500 mM NaCl, 0.01% BRIJ-35 and 5% glycerol buffer. The protein was then eluted by the same buffer containing 250 mM imidazole after a wash containing 25 mM imidazole. The eluted fraction was applied on a HiPrep 26/10 desalting column (GE healthcare) pre-equilibrated with 20 mM TRIS, pH 8, 500 mM NaCl, 5% glycerol and 0.01% BRIJ-35 buffer. Finally, protein in a 20% glycerol buffer was flash frozen in liquid nitrogen and stored at −80 °C.
Kinetic analyses were performed using a spectrophotometric continuous enzymatic-coupled assay using pyruvate kinase (PK) and lactate dehydrogenase (LDH). […] UTP is the physiological dCK-phosphate donor[46] and it was used to determine activation versus inhibition behavior. ATP was used to calculate IC50 values, as it allows the analysis of a dose response curve. The PK/LDH coupled assay is based on the conversion of phosphoenolpyruvate (PEP) and UDP/ADP to pyruvate and UTP/ATP by PK and the subsequent conversion of pyruvate to lactate by LDH. The latter step requires NADH, which is oxidized to NAD^+. NADH is fluorescent (excitation at 337 nm and emission at 460 nm), but not NAD^+. Thus, the measurement of fluorescent decrease at 460 nm is a measure of kinase activity. dCK experiments were performed in a buffer containing 50 mM HEPES, pH 7.5, 5 mM MgCl2, 1 mM DTT, and 100 mM KCl. Buffer was supplemented with PK (0.01 U/µl), LDH (0.02 U/µl), PEP (1 mM), NADH (300 µM) and compounds at varying concentrations. For UTP assays, protein concentration was 2 μM, substrate 200 µM (dC), and UTP 1 mM. For ATP assays, protein concentration was 100 nM (and 50 nM when indicated), substrate 100 µM (dC), and ATP 1 mM. All measurements were performed on a microplate reader Pherastar FS (BMG Labtech). All assays were performed in triplicate and each experiment was performed at least twice. The data are presented as mean ± SD. The results were plotted as kinetics and the velocity was determined for each condition as the slope of the linear range of the curve. For each compound concentration, the velocity of the reaction (according to V = d[P]/dt) was normalized with respect to the drug free control and velocity ratios were compared. IC50 values corresponding to enzymatic inhibition in ATP were calculated by nonlinear regression curves using GraphPad Prism software 9.4.0.

[3] = tested on: CCRF-CEM cell line; experiment: dCK cellular assay: CCRF-CEM proliferation in the presence of dT and dC; assay type: cell-based, human; conditions: for IC50: Homo sapiens
Method in brief: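 Two conditions in T-ALL CCRF-CEM cells: compound only, and compound with thymidine blocking de novo synthesis and deoxycytidine rescuing via dCK. Metabolic dye fluorescence (560/590 nm) gives % proliferation vs DMSO; IC50s, mean ± SD of at least three triplicate runs.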

[4] = target: T1, dCK-C3S-S74E; experiment: Enzymatic assay (PK/LDH coupled), dC phosphorylation by dCK in the presence of ATP; assay type: biochemical
Description: as §1
Kinetic analyses were performed using a spectrophotometric continuous enzymatic-coupled assay using pyruvate kinase (PK) and lactate dehydrogenase (LDH). Analysis of the effect of compounds on dCK-C3S-S74E activity was performed using dC as substrate and UTP/ATP as phosphate donors. UTP is the physiological dCK-phosphate donor[46] and it was used to determine activation versus inhibition behavior. ATP was used to calculate IC50 values, as it allows the analysis of a dose response curve. The PK/LDH coupled assay is based on the conversion of phosphoenolpyruvate (PEP) and UDP/ADP to pyruvate and UTP/ATP by PK and the subsequent conversion of pyruvate to lactate by LDH. The latter step requires NADH, which is oxidized to NAD^+. NADH is fluorescent (excitation at 337 nm and emission at 460 nm), but not NAD^+. Thus, the measurement of fluorescent decrease at 460 nm is a measure of kinase activity. dCK experiments were performed in a buffer containing 50 mM HEPES, pH 7.5, 5 mM MgCl2, 1 mM DTT, and 100 mM KCl. Buffer was supplemented with PK (0.01 U/µl), LDH (0.02 U/µl), PEP (1 mM), NADH (300 µM) and compounds at varying concentrations. For UTP assays, protein concentration was 2 μM, substrate 200 µM (dC), and UTP 1 mM. For ATP assays, protein concentration was 100 nM (and 50 nM when indicated), substrate 100 µM (dC), and ATP 1 mM. All measurements were performed on a microplate reader Pherastar FS (BMG Labtech). All assays were performed in triplicate and each experiment was performed at least twice. The data are presented as mean ± SD. The results were plotted as kinetics and the velocity was determined for each condition as the slope of the linear range of the curve. For each compound concentration, the velocity of the reaction (according to V = d[P]/dt) was normalized with respect to the drug free control and velocity ratios were compared. IC50 values corresponding to enzymatic inhibition in ATP were calculated by nonlinear regression curves using GraphPad Prism software 9.4.0.

[5] = target: T1, dCK-C3S-S74E; experiment: Thermal shift assay (TSA); conditions: for ΔTm (º) (TSA): Figure 2a, mean; for Thermal Shift Assay Mean (ΔTm (º)): Figure 2b
[6] = Acute in vivo toxicity, unique IP injection; conditions: male, mouse, in vivo; Swiss mice, IP, unique injection; read-out: Maximum tolerated dose
Description: (§2) To evaluate the in vivo toxicity selected compounds were injected by intraperitoneal (IP) route to 7 weeks-old male Swiss mice (n = 2) at 10, 20, 40, 50, or 80 mg/kg by unique injection. […] Compounds were administered in their hydrochloride salt forms. Mice were then observed closely for the next one hour, then every hour for 8 h. Observations were continued for 72 h for signs of pain or toxicity such as change in the behavior and in the activity in the cage (decreased locomotion) or change in the appearance (curved back, eyes half-closed, bristle hair, hips hollowed out). In vivo toxicity of compound OR0642 at 40 and 80 mg/kg was also assessed in the NOD-SCID-IL2Rγc null (NSG) mice model for 2 weeks in the presence and absence of dT to confirm the safety of the compound. […]. Blood samples were collected and spun at 10,000 × g prior to collecting the plasma supernatants. All plasma samples were frozen at −80 °C before sample processing. 13 μl of each plasma sample was mixed with 33 μl of acetonitrile to precipitate proteins and extract the compound. Samples were vortexed for 5 min and then placed in an ultrasonic bath for 1 min. The precipitated proteins were sedimented by centrifugation (15,000 × g, 5 min, 16 °C). Supernatants were transferred to a microplate to be analyzed by LC–MS/MS. All samples were analyzed with a UHPLC coupled to a Shimadzu LC-MS 8030 triple quadrupole. The solutions of a standard range, prepared with plasma from untreated mice, were analyzed in the same series of injections.

[7] = Plasma pharmacokinetics after IP administration; assay type: in vivo; conditions: male, Swiss, mouse, mice; for half-life: read-out: T ½ (converted)
Description: as §2

[8] = target: T1, dCK-C3S-S74E
[9] = tested on: Swiss male mice; experiment: Acute in vivo toxicity, unique IP injection; conditions: mice, 80 mg/kg/day
Description: as §2

[10] = read-out: ENZYMATIC ASSAY IC50, presence of ATP, [dCK] = 50 nM (footnote A)

T1 sequence (P27707 whole entry S74E, form open): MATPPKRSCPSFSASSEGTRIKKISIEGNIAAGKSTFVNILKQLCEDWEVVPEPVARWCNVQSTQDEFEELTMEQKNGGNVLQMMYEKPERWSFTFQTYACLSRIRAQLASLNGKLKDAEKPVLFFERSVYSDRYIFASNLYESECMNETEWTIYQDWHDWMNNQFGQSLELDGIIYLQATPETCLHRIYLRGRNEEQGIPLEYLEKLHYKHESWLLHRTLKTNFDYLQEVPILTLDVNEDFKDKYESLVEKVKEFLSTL

Cc1ccc(NC(=O)c2ccc(CN3CCN(C)CC3)cc2)cc1Nc1nc(-c2cccnc2)cs1 [Masitinib, masitinib, reference compound]
Cell proliferation of the CCRF-CEM cell line Mean (% prolif) [1]: 87.5%

CCCN(c1nc(-c2nccc(N)n2)cs1)c1cc(-c2ccc(OCC(=O)N3CCN(C)CC3)cc2)ccc1C [OR0597]
ENZYMATIC ASSAY (Activation/Inhibition) [2]: I
IC50 ([3]; read-out: dCK CELLULAR ASSAY IC50 (nM), CCRF-CEM, 200 µM dT and 1 µM dC, read-out: dCK […] ASSAY IC50): 220 ± 127 nM
IC50 ([4]; read-out: ENZYMATIC ASSAY IC50, presence of ATP, [dCK] = 100 nM): 349 ± 89 nM

CCCN(c1nc(-c2nc(N)cc(N)n2)cs1)c1cc(-c2ccc(S(=O)(=O)N3CCN(C)CC3)cc2)ccc1C [OR0624]
ΔTm (º) (TSA) [5]: 19.49 º
Thermal Shift Assay Mean (ΔTm (º)) [5]: 19.5 º
THERMAL SHIFT ASSAY +Tm (°) ([5]; mean ± SD): 19.5 ± 0.8 °
MTD at 72 h [6]: 20 mg/kg
ENZYMATIC ASSAY (Activation/Inhibition) [2]: I
Cmax ([7]; dose 20 mg/Kg): 3.1 ± 0.6 µM
Tmax ([7]; dose 20 mg/Kg): 1 h
half-life ([7]; dose 20 mg/Kg): 2.22 ± 0.183 h
Enzymatic activity (ATP) Mean (% activity) ([4]; 0.02 µM): 91.0%
Enzymatic activity (ATP) Mean (% activity) ([4]; 0.04 µM): 91.7%
Enzymatic activity (ATP) Mean (% activity) ([4]; 0.08 µM): 65.2%
Enzymatic activity (ATP) Mean (% activity) ([4]; 0.16 µM): 32.0%
Enzymatic activity (ATP) Mean (% activity) ([4]; 0.31 µM): 9.2%
Enzymatic activity (ATP) Mean (% activity) ([4]; 0.63 µM): 3.9%
Enzymatic activity (ATP) Mean (% activity) ([4]; 1.25 µM): 2.6%
Enzymatic activity (ATP) Mean (% activity) ([4]; 2.5 µM): 1.2%
Enzymatic activity (ATP) Mean (% activity) ([4]; 5 µM): 0.363%
IC50 [4, 10]: 198 ± 131 nM

CCCN(c1nc(-c2nc(N)cc(N)n2)cs1)c1cc(-c2ccc(OCC(=O)N3CCN(C)CC3)nc2)ccc1C [OR0630]
ΔTm (º) (TSA) [8]: 17.35 º
IC50 ([3]; Figure 2a, CCRF-CEM cell line, mean, read-out: IC50 (nM) (Cell Prolif)): 245 nM

CCCN(c1nc(-c2nc(N)cc(N)n2)cs1)c1cc(-c2ccc(S(=O)(=O)N3CCN(C)CC3)nc2)ccc1C [OR0634]
ΔTm (º) (TSA) [5]: 17.45 º
Thermal Shift Assay Mean (ΔTm (º)) [5]: 17.5 º
MTD at 72 h [6]: > 80 mg/kg
in vivo tolerance [9]: well tolerated
ENZYMATIC ASSAY (Activation/Inhibition) [2]: I
Cmax ([7]; dose 40 mg/Kg): 5.5 ± 1.3 µM
Tmax ([7]; dose 40 mg/Kg): 1 h
half-life ([7]; dose 40 mg/Kg): 2.15 ± 0.283 h
Enzymatic activity (ATP) Mean (% activity) ([4]; 0.02 µM): 89.7%
Enzymatic activity (ATP) Mean (% activity) ([4]; 0.04 µM): 80.2%
Enzymatic activity (ATP) Mean (% activity) ([4]; 0.08 µM): 45.4%
Enzymatic activity (ATP) Mean (% activity) ([4]; 0.16 µM): 12.5%
Enzymatic activity (ATP) Mean (% activity) ([4]; 0.31 µM): 4.0%
Enzymatic activity (ATP) Mean (% activity) ([4]; 0.63 µM): 2.2%
Enzymatic activity (ATP) Mean (% activity) ([4]; 1.25 µM): 1.9%
Enzymatic activity (ATP) Mean (% activity) ([4]; 2.5 µM): 1.6%
Enzymatic activity (ATP) Mean (% activity) ([4]; 5 µM): 1.6%
IC50 [4, 10]: 100 ± 82 nM

CCCN(c1nc(-c2cccnc2)cs1)c1cc(-c2ccc(S(=O)(=O)N3CCN(C)CC3)cc2)ccc1C [OR0659]
ΔTm, dCK thermal stabilization (TSA) ([5]; 5 μM protein, 50 μM compound): 6.3 °C
inhibition of cell proliferation in combination with dT ([3]; CCRF-CEM, presence of dT + dC): unable to inhibit cellular proliferation
IC50 ([4]; ATP, read-out: enzymatic inhibition IC50): > 100000 nM
